Where two headings read alike, the source gives them in different places.
Key:
Assay in all cases: 72-hour CellTiter-Glo 2.0 growth inhibition screen (single agent, 9x9 combination dose matrix)
Format in all cases: cell-based
SW48 KRAS (G12C/+) = conditions: for EC50: SW48, 72 h, read-out: EC50
Method: (§1) Growth inhibition was determined using a 72-hour CellTiter-Glo®2.0 proliferation assay. Combination format was a 9×9 dose matrix. Six of the 20 cell lines received the original two combinations whilst the remaining 14 cell lines received two additional combinations resulting in four combinations in total. Results have been supplied as both Chalice Analyzer files (.mcc) and raw luminescence data.
(§2) Cell lines that have been preserved in liquid nitrogen are thawed and expanded in growth media (see Appendix I). Once cells have reached expected doubling times, screening begins. Cells are seeded in 25 μl of growth media in black 384-well tissue culture treated plates at 500 cells per well (as noted in Analyzer). Cells are equilibrated in assay plates via centrifugation and placed at 37° C. 5% CO2 for twenty-four hours before treatment. […] Compounds are transferred to assay plates using and Echo acoustic liquid handling system. […] of each compound was added at the appropriate concentration for all combination dose points. Therefore, final assay volume would be 25.05 μl. Assay plates are incubated with compound for 3 days and are then analyzed using CellTiter-Glo 2.0. All data points are collected via automated processes and are subject to quality control and analyzed.
(§3) If T≥V_0:100*(1−(T−V_0)/(V−V_0)) • where T is the signal measure for a test article, V is the untreated/vehicle-treated control measure, and Vo is the untreated/vehicle control measure at time zero (also colloquially referred as TO plates). This formula is derived from the Growth Inhibition calculation used in the National Cancer Institute's NCI-60 high throughput screen. For the purposes of this disclosure, all data analysis was performed in Growth Inhibition (except where noted).
(§4) Inhibition is also provided as a measure of cell viability. […] Inhibition of 100% represents no doubling of cell numbers during the treatment window. Both cytostatic and cytotoxic treatments can yield an Inhibition percentage of 100%. Inhibition percentage is calculated as the following: […]
(§5) The fractional inhibition for each component agent and combination point in the matrix is calculated relative to the median of all untreated/vehicle-treated control wells. The Synergy Score equation integrates the experimentally-observed activity volume at each point in the matrix in excess of a model surface numerically derived from the activity of the component agents using the Loewe model for additivity. Additional terms in the Synergy Score equation (above) are used to normalize for various dilution factors used for individual agents and to allow for comparison of synergy scores across an entire experiment. The inclusion of positive inhibition gating or an Idata multiplier removes noise near the zero-effect level, and biases results for synergistic interactions at that occur at high activity levels. Combinations with higher maximum Growth Inhibition (GI) effects or those which are synergistic at low concentrations will have higher Synergy Scores.
(§6) The CI is a rough estimate of how much drug was needed in combination relative to the single agent doses required to achieve the chosen effect level. CI values in the range of 0.5-0.7 are typical for in vitro measurements of current clinical combinations. The CI error (σCI) is calculated using standard error propagation through the CI calculation based on the isobologram errors. In the Chalice Analyzer, the Best CI is reported from the many CI values calculated for each Icut crossing combination. Among all the measured CI values, the one with the largest single-to-noise level (1−CI)/σCI is reported as the Best CI. Best CI Level is the effect level from which the CI is calculated.

SW837 = conditions: for EC50: SW837, 72 h
Method: as §1, §2, §3, §4, §5, §6

AsPC-1 = conditions: for EC50: ASPC1, 72 h
Method: as §1, §2, §3, §4, §5, §6

HCC1171 = test system: HCC1171
Method: as §1, §2, §3, §4, §5, §6

NCI-H358 = conditions: for EC50: NCI-H358, 72 h
Method: as §1, §2, §3, §4, §5, §6

[1] = Homo sapiens, SW48 KRAS (G12C/+), Colorectal, Additional Single Agent Responses (inhibition, % I), 72 h
[2] = Homo sapiens, SW48 KRAS (G12C/+), Colorectal, growth inhibition (GI) curve, single agent, 72 h
[3] = SW48 KRAS (G12C/+), enhancer + MEI-522 (Voruciclib), 72 h
[4] = enhancer combined with MEI-522 (Voruciclib), SW48 KRAS (G12C/+) (Colorectal), 72 hours, inhibition data
[5] = Homo sapiens, SW837, Colorectal, Additional Single Agent Responses (inhibition, % I), 72 h
[6] = Homo sapiens, SW837, Colorectal, growth inhibition (GI) curve, single agent, 72 h
[7] = SW837 (KRAS G12C), enhancer + MEI-522 (Voruciclib), 72 h
[8] = enhancer combined with MEI-522 (Voruciclib), SW837 (Colorectal), 72 hours, inhibition data
[9] = AsPC-1 (KRAS G12D), enhancer + MEI-522 (Voruciclib), 72 h
[10] = enhancer combined with MEI-522 (Voruciclib), AsPC-1 (Pancreas), 72 hours, inhibition data
[11] = HCC1171 (KRAS G12C), enhancer + MEI-522 (Voruciclib), 72 h
[12] = HCC1171, Lung, Additional Single Agent Responses (inhibition, % I), 72 h
[13] = enhancer combined with MEI-522 (Voruciclib), HCC1171 (Lung), 72 hours, inhibition data
[14] = NCl-H358 (KRAS G12C), enhancer + MEI-522 (Voruciclib), 72 h
[15] = enhancer combined with MEI-522 (Voruciclib), NCl-H358 (Lung), 72 hours, inhibition data

CN1CCN(c2ccc(OC(F)(F)F)c(Nc3ncc4c(n3)-c3c(c(C(N)=O)nn3CCO)CC4)c2)CC1 [Onvansertib]
EC50 (SW48 KRAS (G12C/+); [1]): 15.5 nM
EC50 (SW48 KRAS (G12C/+); [2]): 17.1 nM
IC50 (SW48 KRAS (G12C/+); [1]): 16.3 nM
Emax (SW48 KRAS (G12C/+); Homo sapiens, SW48 KRAS (G12C/+), Colorectal, Additional Single Agent Responses, 72 h, read-out: Max Response (% I)): 93%
GI50 (SW48 KRAS (G12C/+); [2]): 15.9 nM
Emax (SW48 KRAS (G12C/+); Homo sapiens, SW48 KRAS (G12C/+), Colorectal, growth inhibition (GI), single agent, 72 h, read-out: Max Response (% GI)): 159%
Response Area (SW48 KRAS (G12C/+); SW48 KRAS (G12C/+), Colorectal, Additional Single Agent Responses (inhibition, % I), 72 h): 4.14
Response Area (SW48 KRAS (G12C/+); SW48 KRAS (G12C/+), Colorectal, growth inhibition (GI), AUC, single agent, 72 h): 5.77
Best CI (SW48 KRAS (G12C/+); [3]): 0.86
Bliss Volume (SW48 KRAS (G12C/+); [3]): 2.74
HSA volume (SW48 KRAS (G12C/+); [3]): −2.16
Loewe Volume (SW48 KRAS (G12C/+); [3]): −0.91
Synergy Score (SW48 KRAS (G12C/+); [3]): 5.28
Best CI (SW48 KRAS (G12C/+); [4]): 0.67
Best CI Level (SW48 KRAS (G12C/+); [4]): 20
Bliss Volume (SW48 KRAS (G12C/+); [4]): −0.08
HSA volume (SW48 KRAS (G12C/+); [4]): 0.19
Loewe Volume (SW48 KRAS (G12C/+); [4]): −0.06
Synergy Score (SW48 KRAS (G12C/+); [4]): 1.03
EC50 (SW837; [5]): 35.4 nM
EC50 (SW837; [6]): 42.1 nM
IC50 (SW837; [5]): 53.4 nM
Emax (SW837; Homo sapiens, SW837, Colorectal, Additional Single Agent Responses, 72 h, read-out: Max Response (% I)): 76%
GI50 (SW837; [6]): 34.1 nM
Emax (SW837; Homo sapiens, SW837, Colorectal, growth inhibition (GI), single agent, 72 h, read-out: Max Response (% GI)): 118%
Best CI (SW837; [7]): 0.78
Bliss Volume (SW837; [7]): 0.66
HSA volume (SW837; [7]): −1.30
Loewe Volume (SW837; [7]): −4.09
Synergy Score (SW837; [7]): 0.88
Response Area (SW837; SW837, Colorectal, Additional Single Agent Responses (inhibition, % I), 72 h): 3.32
Response Area (SW837; SW837, Colorectal, growth inhibition (GI), AUC, single agent, 72 h): 5.06
Best CI (SW837; [8]): 0.76
Best CI Level (SW837; [8]): 20
Bliss Volume (SW837; [8]): −1.39
HSA volume (SW837; [8]): −0.59
Loewe Volume (SW837; [8]): −2.03
Synergy Score (SW837; [8]): 0.33
Best CI (AsPC-1; [9]): 0.84
Bliss Volume (AsPC-1; [9]): −1.25
HSA volume (AsPC-1; [9]): −1.39
Loewe Volume (AsPC-1; [9]): −0.75
Synergy Score (AsPC-1; [9]): 1.41
Response Area (AsPC-1; AsPC-1, Pancreas, Additional Single Agent Responses (inhibition, % I), 72 h): 2.50
Response Area (AsPC-1; AsPC-1, Pancreas, growth inhibition (GI), AUC, single agent, 72 h): 3.48
EC50 (AsPC-1; Homo sapiens, AsPC-1, Pancreas, Additional Single Agent Responses (inhibition, % I), 72 h): 94.9 nM
EC50 (AsPC-1; Homo sapiens, AsPC-1, Pancreas, growth inhibition (GI) curve, single agent, 72 h): 82.3 nM
IC50 (AsPC-1; Homo sapiens, ASPC1, AsPC-1, Pancreas, Additional Single Agent Responses (inhibition, % I), 72 h): 332 nM
Emax (AsPC-1; Homo sapiens, ASPC1, AsPC-1, Pancreas, Additional Single Agent Responses, 72 h, read-out: Max Response (% I)): 60%
GI50 (AsPC-1; Homo sapiens, ASPC1, AsPC-1, Pancreas, growth inhibition (GI) curve, single agent, 72 h): 109 nM
Emax (AsPC-1; Homo sapiens, ASPC1, AsPC-1, Pancreas, growth inhibition (GI), single agent, 72 h, read-out: Max Response (% GI)): 84%
Best CI (AsPC-1; [10]): 1.13
Best CI Level (AsPC-1; [10]): 20
Bliss Volume (AsPC-1; [10]): −1.91
HSA volume (AsPC-1; [10]): −0.98
Loewe Volume (AsPC-1; [10]): −0.67
Synergy Score (AsPC-1; [10]): 0.67
Best CI (HCC1171; [11]): 1.01
Bliss Volume (HCC1171; [11]): −2.83
HSA volume (HCC1171; [11]): −2.66
Loewe Volume (HCC1171; [11]): −1.72
Synergy Score (HCC1171; [11]): 1.86
EC50 (HCC1171; [12]): 15.5 nM
Response Area (HCC1171; [12]): 1.75
Emax (HCC1171; HCC1171, Lung, Additional Single Agent Responses, 72 h, read-out: Max Response (% I)): 46%
GI50 (HCC1171; HCC1171, Lung, growth inhibition (GI) curve, single agent, 72 h): 33 nM
Response Area (HCC1171; HCC1171, Lung, growth inhibition (GI), AUC, single agent, 72 h): 3.02
Emax (HCC1171; HCC1171, Lung, growth inhibition (GI), single agent, 72 h, read-out: Max Response (% GI)): 81%
Best CI (HCC1171; [13]): 0.62
Bliss Volume (HCC1171; [13]): −3.14
HSA volume (HCC1171; [13]): −1.61
Loewe Volume (HCC1171; [13]): −1.03
Synergy Score (HCC1171; [13]): 0.59
Best CI Level (HCC1171; enhancer combined with MEI-522 (Voruciclib), HCC1171 (Lung), 72 hours, inhibition data, unit assumed): 50%
EC50 (NCI-H358; Homo sapiens, NCl-H358, Lung, Additional Single Agent Responses (inhibition, % I), 72 h): 16.7 nM
EC50 (NCI-H358; Homo sapiens, NCl-H358, Lung, growth inhibition (GI) curve, single agent, 72 h): 18.2 nM
IC50 (NCI-H358; Homo sapiens, NCI-H358, NCl-H358, Lung, Additional Single Agent Responses (inhibition, % I), 72 h): 20.3 nM
Emax (NCI-H358; Homo sapiens, NCI-H358, NCl-H358, Lung, Additional Single Agent Responses, 72 h, read-out: Max Response (% I)): 82%
GI50 (NCI-H358; Homo sapiens, NCI-H358, NCl-H358, Lung, growth inhibition (GI) curve, single agent, 72 h): 18.3 nM
Emax (NCI-H358; Homo sapiens, NCI-H358, NCl-H358, Lung, growth inhibition (GI), single agent, 72 h, read-out: Max Response (% GI)): 127%
Best CI (NCI-H358; [14]): 0.27
Bliss Volume (NCI-H358; [14]): −1.00
HSA volume (NCI-H358; [14]): −5.36
Loewe Volume (NCI-H358; [14]): −3.73
Synergy Score (NCI-H358; [14]): 6.46
Response Area (NCI-H358; NCl-H358, Lung, Additional Single Agent Responses (inhibition, % I), 72 h): 3.36
Response Area (NCI-H358; NCl-H358, Lung, growth inhibition (GI), AUC, single agent, 72 h): 4.69
Best CI (NCI-H358; [15]): 0.38
Best CI Level (NCI-H358; [15]): 75
Bliss Volume (NCI-H358; [15]): −3.69
HSA volume (NCI-H358; [15]): −3.63
Loewe Volume (NCI-H358; [15]): −3.23
Synergy Score (NCI-H358; [15]): 1.36
